Organism: Rattus norvegicus
Assay: DrugMatrix - Regimen: Daily Repeat
Format: toxicity, organism-based, Sprague-Dawley
Design: regimen Daily Repeat, gender Male, age 6-8 weeks
Conditions: in vivo, sc, route subcutaneous, […]; for ABSOLUTE BASOPHIL / ABSOLUTE EOSINOPHIL / ABSOLUTE LYMPHOCYTE / ABSOLUTE MONOCYTE / ABSOLUTE SEGMENTED NEUTROPHIL / BASOPHIL / EOSINOPHIL / ERYTHROCYTE COUNT / HEMATOCRIT / HEMOGLOBIN / LEUKOCYTE COUNT / LYMPHOCYTE / MEAN CORPUSCULAR HEMOGLOBIN / MEAN CORPUSCULAR HEMOGLOBIN CONCENTRATION / MEAN CORPUSCULAR VOLUME / MONOCYTE / NEUTROPHIL / NUCLEATED RED BLOOD CELLS / PLATELET COUNT: tissue Blood; for ALANINE AMINOTRANSFERASE / ALBUMIN / ALKALINE PHOSPHATASE / ASPARTATE AMINOTRANSFERASE / BLOOD UREA NITROGEN / CARBON DIOXIDE / CHLORIDE / CHOLESTEROL / CREATINE PHOSPHOKINASE / CREATININE / GLUCOSE / LACTATE DEHYDROGENASE / LIPASE / PHOSPHORUS / POTASSIUM / SODIUM / TOTAL BILIRUBIN / TOTAL PROTEIN / URIC ACID: tissue Plasma
[1] = 0 mg/kg, 72 h, dose level Control, time 3 day
[2] = 0 mg/kg, 120 h, dose level Control, time 5 day
[3] = 29 mg/kg, 72 h, dose level Low, time 3 day

## Nc1nc2c(ncn2CCC(CO)CO)c(=O)[nH]1 [PENCICLOVIR]
[1]
  ABSOLUTE BASOPHIL: 0 CELLS/uL
  ABSOLUTE EOSINOPHIL: 42.67 CELLS/uL
  ABSOLUTE LYMPHOCYTE: 10202 CELLS/uL
  ABSOLUTE MONOCYTE: 261.5 CELLS/uL
  ABSOLUTE SEGMENTED NEUTROPHIL: 2193.83 CELLS/uL
  BASOPHIL: 0%
  EOSINOPHIL: 0.33%
  ERYTHROCYTE COUNT: 5.63 x10E6/uL
  HEMATOCRIT: 35.35%
  HEMOGLOBIN: 13.07 G/DL
  LEUKOCYTE COUNT: 12.7 x10E3/uL
  LYMPHOCYTE: 81.17%
  MEAN CORPUSCULAR HEMOGLOBIN: 23.23 pg
  MEAN CORPUSCULAR HEMOGLOBIN CONCENTRATION: 36.97 G/DL
  MEAN CORPUSCULAR VOLUME: 62.82 fL
  MONOCYTE: 2%
  NEUTROPHIL: 16.5%
  NUCLEATED RED BLOOD CELLS: 0 /100WBC
  PLATELET COUNT: 1180.33 x10E3/uL
  ALANINE AMINOTRANSFERASE: 48.67 u/L
  ALBUMIN: 4.08 G/DL
  ALKALINE PHOSPHATASE: 360.67 u/L
  ASPARTATE AMINOTRANSFERASE: 85.5 u/L
  BLOOD UREA NITROGEN: 17.83 mg/dL
  CARBON DIOXIDE: 26.17 mmol/L
  CHLORIDE: 101.83 MEQ/L
  CHOLESTEROL: 71 mg/dL
  CREATINE PHOSPHOKINASE: 515.17 u/L
  CREATININE: 0.22 mg/dL
  GLUCOSE: 192.5 mg/dL
  LACTATE DEHYDROGENASE: 214.67 u/L
  LIPASE: 8.5 u/L
  PHOSPHORUS: 12.95 mg/dL
  POTASSIUM: 6.39 MEQ/L
  SODIUM: 142.38 MEQ/L
  TOTAL BILIRUBIN: 0.18 mg/dL
  TOTAL PROTEIN: 5.95 G/DL
  URIC ACID: 1.83 mg/dL
[2]
  ABSOLUTE BASOPHIL: 0 CELLS/uL
  ABSOLUTE EOSINOPHIL: 188.5 CELLS/uL
  ABSOLUTE LYMPHOCYTE: 12360.83 CELLS/uL
  ABSOLUTE MONOCYTE: 64.33 CELLS/uL
  ABSOLUTE SEGMENTED NEUTROPHIL: 1986.33 CELLS/uL
  BASOPHIL: 0%
  EOSINOPHIL: 1.33%
  ERYTHROCYTE COUNT: 5.52 x10E6/uL
  HEMATOCRIT: 35.82%
  HEMOGLOBIN: 13.25 G/DL
  LEUKOCYTE COUNT: 14.6 x10E3/uL
  LYMPHOCYTE: 84.5%
  MEAN CORPUSCULAR HEMOGLOBIN: 24.05 pg
  MEAN CORPUSCULAR HEMOGLOBIN CONCENTRATION: 36.98 G/DL
  MEAN CORPUSCULAR VOLUME: 64.97 fL
  MONOCYTE: 0.5%
  NEUTROPHIL: 13.67%
  NUCLEATED RED BLOOD CELLS: 0 /100WBC
  PLATELET COUNT: 1297.83 x10E3/uL
  ALANINE AMINOTRANSFERASE: 51.17 u/L
  ALBUMIN: 4.08 G/DL
  ALKALINE PHOSPHATASE: 393.17 u/L
  ASPARTATE AMINOTRANSFERASE: 111 u/L
  BLOOD UREA NITROGEN: 18.17 mg/dL
  CARBON DIOXIDE: 25 mmol/L
  CHLORIDE: 105.17 MEQ/L
  CHOLESTEROL: 65.5 mg/dL
  CREATINE PHOSPHOKINASE: 911.5 u/L
  CREATININE: 0.21 mg/dL
  GLUCOSE: 183 mg/dL
  LACTATE DEHYDROGENASE: 189 u/L
  LIPASE: 8.33 u/L
  PHOSPHORUS: 12.78 mg/dL
  POTASSIUM: 6.05 MEQ/L
  SODIUM: 144.57 MEQ/L
  TOTAL BILIRUBIN: 0.25 mg/dL
  TOTAL PROTEIN: 5.83 G/DL
  URIC ACID: 1.58 mg/dL
[3]
  ABSOLUTE BASOPHIL: 0 CELLS/uL
  ABSOLUTE EOSINOPHIL: 232.67 CELLS/uL
  ABSOLUTE LYMPHOCYTE: 11739.33 CELLS/uL
  ABSOLUTE MONOCYTE: 92.67 CELLS/uL
  ABSOLUTE SEGMENTED NEUTROPHIL: 1668.67 CELLS/uL
  BASOPHIL: 0%
  EOSINOPHIL: 1.67%
  ERYTHROCYTE COUNT: 5.23 x10E6/uL
  HEMATOCRIT: 33.7%
  HEMOGLOBIN: 12.47 G/DL
  LEUKOCYTE COUNT: 13.73 x10E3/uL
  LYMPHOCYTE: 85.67%
  MEAN CORPUSCULAR HEMOGLOBIN: 23.87 pg
  MEAN CORPUSCULAR HEMOGLOBIN CONCENTRATION: 36.97 G/DL
  MEAN CORPUSCULAR VOLUME: 64.5 fL
  MONOCYTE: 0.67%
  NEUTROPHIL: 12%
  NUCLEATED RED BLOOD CELLS: 0 /100WBC
  PLATELET COUNT: 1318 x10E3/uL
  ALANINE AMINOTRANSFERASE: 47 u/L
  ALBUMIN: 4.03 G/DL
  ALKALINE PHOSPHATASE: 451.67 u/L
  ASPARTATE AMINOTRANSFERASE: 88.67 u/L
  BLOOD UREA NITROGEN: 15 mg/dL
  CARBON DIOXIDE: 28 mmol/L
  CHLORIDE: 104.67 MEQ/L
  CHOLESTEROL: 64 mg/dL
  CREATINE PHOSPHOKINASE: 727.67 u/L
  CREATININE: 0.21 mg/dL
  GLUCOSE: 162.33 mg/dL
  LACTATE DEHYDROGENASE: 101 u/L
  LIPASE: 8.33 u/L
  PHOSPHORUS: 13 mg/dL
  POTASSIUM: 6.56 MEQ/L
  SODIUM: 146.33 MEQ/L
  TOTAL BILIRUBIN: 0.2 mg/dL
  TOTAL PROTEIN: 5.9 G/DL
  URIC ACID: 1.7 mg/dL

From ChEMBL document CHEMBL3885881, “DrugMatrix”
